Where a SMILES comes first, the peptide text is derived from it.
Columns and labels:
rats = details: cited from earlier work
[1] = Subcutaneous water retention in bodybuilders on a pre-competition diet (caliper test and visual inspection, Example 6); type: in vivo, human; details: ten bodybuilders; 12-week pre-competition diet with this sweetener only; caliper test and muscle definition score twice weekly
Method: This study was defined to determine whether the ingestion of sucralose results in reduced subcutaneous water retention compared to the water retention resulting from the ingestion of aspartame. Ten bodybuilders on a pre-competition diet were closely monitored. Prior to the pre-competition diet, the body fat and the weight of the ten bodybuilders were measured. Prior to this study, the participants in their normal diet refrained for one week from any products containing either sucralose or aspartame.
In the first phase of the study, during the 12-week pre-competition diet, the body builders consumed goods and liquids that were sweetened with aspartame only. Two methods for assessing subcutaneous water retention were used. […] As a second test, the subjective visual inspection was used, where the abdomen and overall body definition were visually inspected and photographed. As with the objective test, the subjects' muscle definition-value was determined twice weekly. A scale of 1 to 10 for muscle definition was used as an indicator for subcutaneous water retention, with a score of 10 indicating excellent muscle definition and 1 indicating poor definition. […]

[2] = Roberts, J. Appl. Nutr. 1988; cited from earlier work
[3] = in vivo; cited from earlier work

Row | SMILES | risk of causing cancer (rats) | subcutaneous water retention [1] | water retention within the body [2] | sweetness intensity relative to sucrose [3]
1 | O=C1NS(=O)(=O)c2ccccc21 [Saccharin] | reported to be a risk in causing cancer in rats |  |  | 
2 | COC(=O)[C@H](Cc1ccccc1)NC(=O)[C@@H](N)CC(=O)O [aspartame, N-L-α-aspartyl-L-phenylalanine methyl ester] (H-Asp-Phe-OMe) |  | makes the body retain water | linked with excessive water retention within the body | 
3 | OC[C@H]1O[C@H](O[C@]2(CCl)O[C@H](CCl)[C@@H](O)[C@@H]2O)[C@H](O)[C@@H](O)[C@H]1Cl [sucralose, 4,1′,6′-trichloro-4,1′,6′-trideoxygalactosucrose] |  | This effect is reduced |  | several hundred times that of sucrose

— US20030190396A1, “Methods and compositions for altering the sweetness delivery profile of sucralose” (priority 2002, published 2003)
